Test results as given in patent US6914045B2, “Glycopeptide antibiotics” (Wyeth Holdings Corporation, priority 2001, dated 2005).
Values after ≈ are worked out from the molar mass of the structure shown. Read-outs that look alike come from different tables or passages of the source.

What was measured:
[1] = system: Gram-positive bacteria comprised of Staphylococcus sp., Streptococcus sp. and Enterococcus sp.; experiment: in vitro antibacterial evaluation, MIC by broth dilution (strain not given); assay type: cell-based
Protocol: Methods for in vitro Antibacterial Evaluation (Table 1)
The minimum inhibitory concentration (MIC), the lowest concentration of the antibiotic which inhibits growth of the test organism, is determined by the broth dilution method using Muller-Hinton II […] (Baltimore Biological Laboratories) following the recommendations of the National Committee for Clinical Laboratory Standards [Methods for dilution antimicrobial susceptibility tests for bacteria that grow aerobically, approved standard M7-A2, National Committee for Clinical Laboratory Standards, Villanova, Pa.].
An inoculum level of 5×10^5 CFU/mL, and a range of antibiotic concentrations (64-0.06 μg/mL) is used. […] The test organisms include a spectrum of Gram-positive bacteria comprised of Staphylococcus sp., Streptococcus sp. and Enterococcus sp. These organisms include recent clinical isolates that are resistant to methicillin, penicillin and/or vancomycin.

[2] = anatomic pathology (histopathology of heart and kidney) in mice; assay type: in vivo; conditions: CD-1 mice, 20 mg/kg intravenously daily for 9 days, necropsy day 10, microscopic histopathology
Protocol: Samples of tissues from necropsied mice were formalin-fixed, paraffin-embedded, sectioned, stained with hematoxylin and eosin, and examined microscopically. Histopathologic findings were recorded. These findings were subjectively graded on a scale corresponding to slight, mild, moderate, marked and severe as compared to untreated controls.

[3] = system: Escherichia coli; experiment: in vitro antibacterial evaluation, MIC by broth dilution; assay type: cell-based; conditions: 18 hours at 35° C.
Procedure, shortened: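 MIC = lowest antibiotic concentration preventing visible growth; inoculum 5×10^5 CFU/mL; drug range 64-0.06 μg/mL; Muller-Hinton II […]; NCCLS M7-A2 guidance.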

[4] = system: Staphylococcus sp.; experiment: as above; assay type: cell-based; conditions: broth dilution, 18 hours at 35° C.
Procedure, shortened: (§1)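 Step 1: dilute antibiotic across 64-0.06 μg/mL in Muller-Hinton II […]. Step 2: inoculate at 5×10^5 CFU/mL.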

[5] = system: Enterococcus sp.; experiment: as above; assay type: cell-based; conditions: broth dilution, 18 hours at 35° C.
Procedure, shortened: as §1

[6] = system: Streptococcus sp.; experiment: as above; assay type: cell-based; conditions: broth dilution, 18 hours at 35° C.
Procedure, shortened: as §1

[7] = system: Staphylococcus aureus-SMITH (GC 4543); experiment: acute lethal infection in mice; assay type: in vivo; conditions: Staphylococcus, read-out: median effective dose (ED50), Staphylococcus aureus-SMITH (GC 4543)
Procedure, shortened: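 Female CD-1 mice (20+/−2 gm) were infected intraperitoneally with enough bacteria, suspended in trypticase soy broth or hog gastric mucin, to kill untreated controls within 24-48 hr. Compound in saline or 5% dextrose was given intravenously 30 min post-infection, five mice per dose. ED50 came from pooled 7 day survival of 3 tests.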

`N=C1NCC(C(O)C2NC(=O)[C@H](C(O)C3CNC(=N)N3)NC(=O)C(Cc3ccc(O)cc3)NC(=O)[C@H](Cc3ccccc3)NC(=O)CNC(=O)[C@H](CO)NC2=O)N1` (stereo in doubt) [Example 280a, Cyclo[glycylphenylalanyltyrosyl-3-(2-iminoimidazolidin-4-yl)seryl-3-(2-iminoimidazolidin-4-yl)serylseryl]] gave an MIC ([1]; Table 2 section r2574-r2600, column 1, 18 hours at 35° C., read-out: MIC, strain of column 1) greater than 128 µg/mL, an MIC ([1]; Table 2 section r2574-r2600, column 2, 18 hours at 35° C., read-out: MIC, strain of column 2) of 128 µg/mL (≈ 161 µM) and an MIC ([1]; Table 2 section r2574-r2600, column 3, 18 hours at 35° C., read-out: MIC, strain not given) greater than 128 µg/mL. It also gave an MIC ([1]; Table 2 section r2574-r2600, column 5, 18 hours at 35° C., read-out: MIC, strain of column 5) greater than 128 µg/mL, an MIC ([1]; Table 2 section r2574-r2600, column 7, 18 hours at 35° C., read-out: MIC, strain not given) greater than 128 µg/mL and an MIC ([1]; Table 2 section r2574-r2600, column 9, 18 hours at 35° C., read-out: MIC, strain of column 9) greater than 128 µg/mL. For the same compound, the MIC ([1]; Table 2 section r2574-r2600, column 10, 18 hours at 35° C., read-out: MIC, strain of column 10) was greater than 128 µg/mL, the “Anatomical Pathology (Day 10), Heart” value [2] was 0 and the “Anatomical Pathology (Day 10), Kidney” value [2] was “++”. The MIC ([3]; ATCC25922, Escherichia coli (ATCC 25922), read-out: MIC, Escherichia coli (ATCC 25922)) was 128 µg/mL (≈ 161 µM), the MIC ([3]; Escherichia coli (GC 4559), read-out: MIC, Escherichia coli (GC 4559)) was 64 µg/mL (≈ 80.5 µM) and the MIC ([3]; Escherichia coli (GC 4560), read-out: MIC, Escherichia coli (GC 4560)) was 64 µg/mL (≈ 80.5 µM). The MIC ([4]; Staphylococcus, read-out: MIC Coagulase Negative Staphylococcus (GC 4547)) was 128 µg/mL (≈ 161 µM), the MIC ([4]; Staphylococcus, read-out: MIC Coagulase Negative Staphylococcus (GC 4548)) was greater than 128 µg/mL and the MIC ([4]; Staphylococcus, read-out: MIC Coagulase Negative Staphylococcus (GC 4549)) was 128 µg/mL (≈ 161 µM). It also gave an MIC ([4]; Staphylococcus, read-out: MIC Coagulase Negative Staphylococcus (GC 4551)) greater than 128 µg/mL, an MIC ([4]; Staphylococcus, read-out: MIC Coagulase Negative Staphylococcus (GC 6257)) of 128 µg/mL (≈ 161 µM) and an MIC ([4]; Staphylococcus, read-out: MIC Staphylococcus aureus-SMITH (GC 4543)) greater than 128 µg/mL. The MIC ([4]; read-out: MIC Staphylococcus aureus (ATCC 29213)) was greater than 128 µg/mL, the MIC ([4]; read-out: MIC Staphylococcus aureus (GC 1131)) was greater than 128 µg/mL and the MIC ([4]; read-out: MIC Staphylococcus aureus (GC 3051)) was greater than 128 µg/mL. The MIC ([4]; read-out: MIC Staphylococcus aureus (GC 3053)) was greater than 128 µg/mL, the MIC ([4]; read-out: MIC Staphylococcus aureus (GC 4541)) was greater than 128 µg/mL and the MIC ([4]; read-out: MIC Staphylococcus aureus (GC 4542)) was greater than 128 µg/mL. It also gave an MIC ([4]; read-out: MIC Staphylococcus aureus (GC 4544)) greater than 128 µg/mL, an MIC ([4]; read-out: MIC Staphylococcus aureus (GC 4545)) greater than 128 µg/mL and an MIC ([4]; read-out: MIC Staphylococcus haemolyticus (GC 4546)) of 128 µg/mL (≈ 161 µM). For the same compound, the “MIC Staphylococcus aureus (ATCC 29213)” value ([4]; strain ATCC 29213) was greater than 128 µg/mL, the “MIC Staphylococcus aureus (GC 1131)” value ([4]; strain GC 1131) was greater than 128 µg/mL and the “MIC Staphylococcus aureus (GC 3051)” value ([4]; strain GC 3051) was greater than 128 µg/mL. For the same compound, the “MIC Staphylococcus aureus (GC 3053)” value ([4]; strain GC 3053) was greater than 128 µg/mL, the “MIC Staphylococcus aureus (GC 4541)” value ([4]; strain GC 4541) was greater than 128 µg/mL and the “MIC Staphylococcus aureus (GC 4542)” value ([4]; strain GC 4542) was greater than 128 µg/mL. For the same compound, the “MIC Staphylococcus aureus (GC 4544)” value ([4]; strain GC 4544) was greater than 128 µg/mL, the “MIC Staphylococcus aureus (GC 4545)” value ([4]; strain GC 4545) was greater than 128 µg/mL and the “MIC Staphylococcus haemolyticus (GC 4546)” value ([4]; strain GC 4546) was 128 µg/mL (≈ 161 µM). For the same compound, the “MIC Coagulase Negative Staphylococcus (GC 4547)” value ([4]; strain GC 4547) was 128 µg/mL (≈ 161 µM), the “MIC Coagulase Negative Staphylococcus (GC 4548)” value ([4]; strain GC 4548) was greater than 128 µg/mL and the “MIC Coagulase Negative Staphylococcus (GC 4549)” value ([4]; strain GC 4549) was 128 µg/mL (≈ 161 µM). The “MIC Coagulase Negative Staphylococcus (GC 4551)” value ([4]; strain GC 4551) was greater than 128 µg/mL, the “MIC Coagulase Negative Staphylococcus (GC 6257)” value ([4]; strain GC 6257) was 128 µg/mL (≈ 161 µM) and the “MIC Staphylococcus aureus-SMITH (GC 4543)” value ([4]; strain SMITH GC 4543) was greater than 128 µg/mL. The MIC ([5]; Enterococcus avium (GC 4558), read-out: MIC, Enterococcus avium (GC 4558)) was greater than 128 µg/mL, the MIC ([5]; Enterococcus faecalis (ATCC 29212), read-out: MIC, Enterococcus faecalis (ATCC 29212)) was greater than 128 µg/mL and the MIC ([5]; Enterococcus faecalis (GC 4553), read-out: MIC, Enterococcus faecalis (GC 4553)) was greater than 128 µg/mL. For the same compound, the MIC ([5]; Enterococcus faecalis (GC 4554), read-out: MIC, Enterococcus faecalis (GC 4554)) was greater than 128 µg/mL, the MIC ([5]; Enterococcus faecalis (GC 6189), read-out: MIC, Enterococcus faecalis (GC 6189)) was greater than 128 µg/mL and the MIC ([5]; Enterococcus faecium (GC 2243), read-out: MIC, Enterococcus faecium (GC 2243)) was greater than 128 µg/mL. For the same compound, the MIC ([5]; Enterococcus faecium (GC 4556), read-out: MIC, Enterococcus faecium (GC 4556)) was greater than 128 µg/mL, the MIC ([5]; Enterococcus faecium (GC 4557), read-out: MIC, Enterococcus faecium (GC 4557)) was greater than 128 µg/mL and the MIC ([5]; strain ATCC 29212, read-out: MIC Enterococcus faecalis (ATCC 29212)) was greater than 128 µg/mL. The MIC ([5]; strain GC 2242, read-out: MIC Enterococcus faecalis (GC 2242)) was greater than 128 µg/mL, the MIC ([5]; strain GC 2243, read-out: MIC Enterococcus faecium (GC 2243)) was greater than 128 µg/mL and the MIC ([5]; strain GC 2691, read-out: MIC Enterococcus faecalis (GC 2691)) was greater than 128 µg/mL. The MIC ([5]; strain GC 3059, read-out: MIC Enterococcus faecalis (GC 3059)) was greater than 128 µg/mL, the MIC ([5]; strain GC 4552, read-out: MIC Enterococcus faecalis (GC 4552)) was greater than 128 µg/mL and the MIC ([5]; strain GC 4553, read-out: MIC Enterococcus faecalis (GC 4553)) was greater than 128 µg/mL. For the same compound, the MIC ([5]; strain GC 4554, read-out: MIC Enterococcus faecalis (GC 4554)) was greater than 128 µg/mL, the MIC ([5]; strain GC 4556, read-out: MIC Enterococcus faecium (GC 4556)) was greater than 128 µg/mL and the MIC ([5]; strain GC 4557, read-out: MIC Enterococcus faecium (GC 4557)) was greater than 128 µg/mL. The MIC ([5]; strain GC 4558, read-out: MIC Enterococcus avium (GC 4558)) was greater than 128 µg/mL, the MIC ([5]; strain GC 6189, read-out: MIC Enterococcus faecalis (GC 6189)) was greater than 128 µg/mL and the MIC ([6]; strain ATCC 6301, read-out: MIC Streptococcus pneumoniae (ATCC 6301)) was greater than 128 µg/mL. The MIC ([6]; strain GC 1894, read-out: MIC Streptococcus pneumoniae (GC 1894)) was 128 µg/mL (≈ 161 µM), the MIC ([6]; strain GC 4563, read-out: MIC Streptococcus pyogenes (GC 4563)) was greater than 128 µg/mL and the MIC ([6]; strain GC 4564, read-out: MIC Streptococcus agalactiae (GC 4564)) was greater than 128 µg/mL. The MIC ([6]; strain GC 4565, read-out: MIC Streptococcus pneumoniae (GC 4565)) was greater than 128 µg/mL and the ED50 [7] was greater than 8 mg/kg.
